Results: BigSolDB 2.1

CC(=O)O[C@]1(C(C)=O)CC[C@H]2[C@@H]3C=C(Cl)C4=CC(=O)[C@@H]5C[C@@H]5[C@]4(C)[C@H]3CC[C@@]21C
solubility (mole fraction) (in MTBE, 273.15 K): 0.000675
solubility (mole fraction) (in MTBE, 278.15 K): 0.000675
solubility (mole fraction) (in MTBE, 283.15 K): 0.000676
solubility (mole fraction) (in MTBE, 288.15 K): 0.000676
solubility (mole fraction) (in MTBE, 293.15 K): 0.000677
solubility (mole fraction) (in MTBE, 298.15 K): 0.000677
solubility (mole fraction) (in MTBE, 303.15 K): 0.000678
solubility (mole fraction) (in MTBE, 308.15 K): 0.000678
solubility (mole fraction) (in MTBE, 313.15 K): 0.000679
solubility (mole fraction) (in MTBE, 318.15 K): 0.000679
solubility (mole fraction) (in methanol, 273.15 K): 0.000229
solubility (mole fraction) (in methanol, 278.15 K): 0.000229
solubility (mole fraction) (in methanol, 283.15 K): 0.000229
solubility (mole fraction) (in methanol, 288.15 K): 0.00023
solubility (mole fraction) (in methanol, 293.15 K): 0.00023
solubility (mole fraction) (in methanol, 298.15 K): 0.00023
solubility (mole fraction) (in methanol, 303.15 K): 0.00023
solubility (mole fraction) (in methanol, 308.15 K): 0.00023
solubility (mole fraction) (in methanol, 313.15 K): 0.00023
solubility (mole fraction) (in methanol, 318.15 K): 0.000231
solubility (mole fraction) (in water, 273.15 K): 6.57e-07
solubility (mole fraction) (in water, 278.15 K): 8.66e-07
solubility (mole fraction) (in water, 283.15 K): 1.16e-06
solubility (mole fraction) (in water, 288.15 K): 1.56e-06
solubility (mole fraction) (in water, 293.15 K): 2.09e-06
solubility (mole fraction) (in water, 298.15 K): 2.79e-06
solubility (mole fraction) (in water, 303.15 K): 3.67e-06
solubility (mole fraction) (in water, 308.15 K): 4.88e-06
solubility (mole fraction) (in water, 313.15 K): 6.36e-06
solubility (mole fraction) (in water, 318.15 K): 8.21e-06
